Experimental data: patent publication US9074014B2 (Ipsen Pharma S.A.S., priority 2008, dated 2015)
Where a SMILES comes first, the peptide text is derived from it. Where no end group is shown, it is not given here. [ ]: non-standard residue; d: D form. The star is where a group is joined. Ac6c = NC1(C(=O)O)CCCCC1; Nle = CCCC[C@H](N)C(=O)O; X1 = CCCN1C(=O)CC(*)C1=O; Ac5c = NC1(C(=O)O)CCCC1; Aib = CC(C)(N)C(=O)O

Experiments:
[1] = Human plasma half-life assay; type: in vitro ADME; details: human plasma, 37° C., LC-MS; read-out: Human Plasma T½ (converted)
[2] = Rat plasma half-life assay; type: in vitro ADME; details: rat plasma, 37° C., LC-MS; read-out: Rat Plasma T½ (converted)

| Molecule | half-life at 0.1 mg/ml [1] | half-life at 0.1 mg/ml [2] |
| --- | --- | --- |
| CC[C@H](C)[C@H](NC(=O)[C@H](CO)NC(=O)[C@H](Cc1ccc(O)cc1)NC(=O)[C@H](CC(=O)O)NC(=O)[C@H](CO)NC(=O)C1(NC(=O)[C@H](Cc2ccccc2)NC(=O)[C@@H](NC(=O)CNC(=O)[C@H](CCC(=O)O)NC(=O)C(C)(C)NC(=O)[C@@H](N)Cc2ccc(O)cc2)[C@@H](C)O)CCCC1)C(=O)N[C@@H](C)C(=O)N[C@@H](CCSC)C(=O)N[C@@H](CC(=O)O)C(=O)N[C@@H](CCCCN)C(=O)N[C@H](C(=O)N[C@@H](Cc1c[nH]cn1)C(=O)N[C@@H](CCC(N)=O)C(=O)N[C@@H](CCC(N)=O)C(=O)N[C@@H](CC(=O)O)C(=O)N[C@@H](Cc1ccccc1)C(=O)N[C@H](C(=O)N[C@@H](CC(N)=O)C(=O)N[C@@H](Cc1c[nH]c2ccccc12)C(=O)N[C@@H](CC(C)C)C(=O)N[C@@H](CC(C)C)C(=O)N[C@@H](C)C(=O)N[C@@H](CCC(N)=O)C(=O)N[C@@H](CCCCN)C(N)=O)C(C)C)[C@@H](C)CC [Example 12, (Aib^2, A5c^7)hGIP(1-30)-NH2] | 20.5 h | > 48 h |
| Y[Aib]EGTF[Ac6c]SDYSIAMDKIHQQDFVNWLLAQK[Aib]KKNDWKHNITQ-OH [Example 22, (Aib^2, 31, A6c^7)hGIP(1-42)-OH] | > 48 h | 14.2 h |
| Y[Aib]EGTF[Ac6c]SDYSIAMDKIHQQDFVNWLLAQKGKKNC(X1)WKHNITQ-OH [Example 85, [Aib^2, A6c^7, Cys(Psu)^35]hGIP(1-42)-OH] | 7.3 h | 3.5 h |
| Y[Aib]EGTFI[Aib]DYSIAMDKIHQQDFVNWLLAQKGKKNDWKHNITQ-OH [Example 9, (Aib^2, 8)hGIP(1-42)-OH] | > 48 h | 9.2 h |
| YAPGTFISDYSIA[Ac6c]DKIHQQDFVNWLLAQKGKKNDWKHNITQ-OH [Example 91, (Pro^3, A6c^14)hGIP(1-42)-OH] | 13.4 h | 1 h |
| CC[C@H](C)[C@H](NC(=O)[C@H](CO)NC(=O)[C@H](Cc1ccc(O)cc1)NC(=O)C(C)(C)NC(=O)[C@H](CO)NC(=O)[C@@H](NC(=O)[C@H](Cc1ccccc1)NC(=O)[C@@H](NC(=O)CNC(=O)[C@H](CCC(=O)O)NC(=O)C(C)(C)NC(=O)[C@@H](N)Cc1ccc(O)cc1)[C@@H](C)O)[C@@H](C)CC)C(=O)N[C@@H](C)C(=O)N[C@@H](CCSC)C(=O)N[C@@H](CC(=O)O)C(=O)N[C@@H](CCCCN)C(=O)N[C@H](C(=O)N[C@@H](Cc1c[nH]cn1)C(=O)N[C@@H](CCC(N)=O)C(=O)N[C@@H](CCC(N)=O)C(=O)N[C@@H](CC(=O)O)C(=O)N[C@@H](Cc1ccccc1)C(=O)N[C@H](C(=O)N[C@@H](CC(N)=O)C(=O)N[C@@H](Cc1c[nH]c2ccccc12)C(=O)N[C@@H](CC(C)C)C(=O)N[C@@H](CC(C)C)C(=O)N[C@@H](C)C(=O)N[C@@H](CCC(N)=O)C(=O)N[C@@H](CCCCN)C(N)=O)C(C)C)[C@@H](C)CC [Example 18, (Aib^2, 9)hGIP(1-30)-NH2] (H-Y[Aib]EGTFIS[Aib]YSIAMDKIHQQDFVNWLLAQK-NH2; N-terminus assumed) | 11.3 h | 44.4 h |
| CCCC[C@H](NC(=O)[C@H](C)NC(=O)[C@@H](NC(=O)[C@H](CO)NC(=O)[C@H](Cc1ccc(O)cc1)NC(=O)[C@H](CC(=O)O)NC(=O)[C@H](CO)NC(=O)C1(NC(=O)[C@H](Cc2ccccc2)NC(=O)[C@@H](NC(=O)CNC(=O)[C@H](CCC(=O)O)NC(=O)C(C)(C)NC(=O)[C@@H](N)Cc2ccc(O)cc2)[C@@H](C)O)CCCCC1)[C@@H](C)CC)C(=O)N[C@@H](CC(=O)O)C(=O)N[C@@H](CCCCN)C(=O)N[C@H](C(=O)N[C@@H](Cc1c[nH]cn1)C(=O)N[C@@H](CCC(N)=O)C(=O)N[C@@H](CCC(N)=O)C(=O)N[C@@H](CC(=O)O)C(=O)N[C@@H](Cc1ccccc1)C(=O)N[C@H](C(=O)N[C@@H](CC(N)=O)C(=O)N[C@@H](Cc1c[nH]c2ccccc12)C(=O)N[C@@H](CC(C)C)C(=O)N[C@@H](CC(C)C)C(=O)N[C@@H](C)C(=O)N[C@@H](CCC(N)=O)C(=O)N[C@@H](CCCCN)C(N)=O)C(C)C)[C@@H](C)CC [Example 31, (Aib^2, A6c^7, Nle^14)hGIP(1-30)-NH2] (H-Y[Aib]EGTF[Ac6c]SDYSIA[Nle]DKIHQQDFVNWLLAQK-NH2; N-terminus assumed) | 36.5 h | 31.4 h |
| CC[C@H](C)[C@H](NC(=O)[C@H](CCCCN)NC(=O)[C@H](CC(=O)O)NC(=O)[C@H](CCSC)NC(=O)C(C)(C)NC(=O)[C@@H](NC(=O)[C@H](CO)NC(=O)[C@H](Cc1ccc(O)cc1)NC(=O)[C@H](CC(=O)O)NC(=O)[C@H](CO)NC(=O)[C@@H](NC(=O)[C@H](Cc1ccccc1)NC(=O)[C@@H](NC(=O)CNC(=O)[C@H](CCC(=O)O)NC(=O)C(C)(C)NC(=O)[C@@H](N)Cc1ccc(O)cc1)[C@@H](C)O)[C@@H](C)CC)[C@@H](C)CC)C(=O)N[C@@H](Cc1c[nH]cn1)C(=O)N[C@@H](CCC(N)=O)C(=O)N[C@@H](CCC(N)=O)C(=O)N[C@@H](CC(=O)O)C(=O)N[C@@H](Cc1ccccc1)C(=O)N[C@H](C(=O)N[C@@H](CC(N)=O)C(=O)N[C@@H](Cc1c[nH]c2ccccc12)C(=O)N[C@@H](CC(C)C)C(=O)N[C@@H](CC(C)C)C(=O)N[C@@H](C)C(=O)N[C@@H](CCC(N)=O)C(=O)N[C@@H](CCCCN)C(N)=O)C(C)C [Example 47, (Aib^2, 13)hGIP(1-30)-NH2] (H-Y[Aib]EGTFISDYSI[Aib]MDKIHQQDFVNWLLAQK-NH2; N-terminus assumed) | 45.3 h | 30.8 h |
| Y[Aib]EGTFISDYS[Aib]AMDKIHQQDFVNWLLAQKGKKNDWKHNITQ-OH [Example 8, (Aib^2, 12)hGIP(1-42)-OH] | > 48 h | 4.5 h |
| CC[C@H](C)[C@H](NC(=O)[C@H](CCCCN)NC(=O)[C@H](CC(=O)O)NC(=O)C1(NC(=O)[C@H](C)NC(=O)[C@@H](NC(=O)C2(NC(=O)[C@H](Cc3ccc(O)cc3)NC(=O)[C@H](CC(=O)O)NC(=O)[C@H](CO)NC(=O)[C@@H](NC(=O)[C@H](Cc3ccccc3)NC(=O)[C@@H](NC(=O)CNC(=O)[C@@H]3CCCN3C(=O)C(C)(C)NC(=O)[C@@H](N)Cc3ccc(O)cc3)[C@@H](C)O)[C@@H](C)CC)CCCC2)[C@@H](C)CC)CCCCC1)C(=O)N[C@@H](Cc1c[nH]cn1)C(=O)N[C@@H](CCC(N)=O)C(=O)N[C@@H](CCC(N)=O)C(=O)N[C@@H](CC(=O)O)C(=O)N[C@@H](Cc1ccccc1)C(=O)N[C@H](C(=O)N[C@@H](CC(N)=O)C(=O)N[C@@H](Cc1c[nH]c2ccccc12)C(=O)N[C@@H](CC(C)C)C(=O)N[C@@H](CC(C)C)C(=O)N[C@@H](C)C(=O)N[C@@H](CCC(N)=O)C(=O)N[C@@H](CCCCN)C(N)=O)C(C)C [Example 112, (Aib^2, Pro^3, A5c^11, A6c^14)hGIP(1-30)-NH2] (H-Y[Aib]PGTFISDY[Ac5c]IA[Ac6c]DKIHQQDFVNWLLAQK-NH2; N-terminus assumed) | 59.7 h | > 72 h |
| Y[Aib]EGTF[Ac5c]SDYSIA[Nle]DKIHQQDFVNWLLAQKGKKNDWKHNITQ-OH [Example 58, (Aib^2, A5c^7, Nle^14)hGIP(1-42)-OH] | 37.6 h | 16.7 h |
| Y[Aib]EGTF[Ac6c]SDYSIA[Nle]DKIHQQDFVNWLLAQKGKKNDWKHNI[Ac6c]Q-OH [Example 29, (Aib^2, A6c^7, 41, Nle^14)hGIP(1-42)-OH] | > 48 h | 7.3 h |
| CC[C@H](C)[C@H](NC(=O)[C@H](CO)NC(=O)[C@H](Cc1ccc(O)cc1)NC(=O)[C@H](CC(=O)O)NC(=O)[C@H](CO)NC(=O)[C@@H](NC(=O)[C@H](Cc1ccccc1)NC(=O)C(C)(C)NC(=O)CNC(=O)[C@H](CCC(=O)O)NC(=O)C(C)(C)NC(=O)[C@@H](N)Cc1ccc(O)cc1)[C@@H](C)CC)C(=O)N[C@@H](C)C(=O)N[C@@H](CCSC)C(=O)N[C@@H](CC(=O)O)C(=O)N[C@@H](CCCCN)C(=O)N[C@H](C(=O)N[C@@H](Cc1c[nH]cn1)C(=O)N[C@@H](CCC(N)=O)C(=O)N[C@@H](CCC(N)=O)C(=O)N[C@@H](CC(=O)O)C(=O)N[C@@H](Cc1ccccc1)C(=O)N[C@H](C(=O)N[C@@H](CC(N)=O)C(=O)N[C@@H](Cc1c[nH]c2ccccc12)C(=O)N[C@@H](CC(C)C)C(=O)N[C@@H](CC(C)C)C(=O)N[C@@H](C)C(=O)N[C@@H](CCC(N)=O)C(=O)N[C@@H](CCCCN)C(N)=O)C(C)C)[C@@H](C)CC [Example 15, (Aib^2, 5)hGIP(1-30)-NH2] | 28.6 h | 46.5 h |
| CC[C@H](C)[C@H](NC(=O)[C@H](CO)NC(=O)[C@H](Cc1ccc(O)cc1)NC(=O)[C@H](CC(=O)O)NC(=O)[C@H](CO)NC(=O)C1(NC(=O)[C@H](Cc2ccccc2)NC(=O)[C@@H](NC(=O)CNC(=O)[C@H](CCC(=O)O)NC(=O)C(C)(C)NC(=O)[C@@H](N)Cc2ccc(O)cc2)[C@@H](C)O)CCCCC1)C(=O)N[C@@H](C)C(=O)NC1(C(=O)N[C@@H](CC(=O)O)C(=O)N[C@@H](CCCCN)C(=O)N[C@H](C(=O)N[C@@H](Cc2c[nH]cn2)C(=O)N[C@@H](CCC(N)=O)C(=O)N[C@@H](CCC(N)=O)C(=O)N[C@@H](CC(=O)O)C(=O)N[C@@H](Cc2ccccc2)C(=O)N[C@H](C(=O)N[C@@H](CC(N)=O)C(=O)N[C@@H](Cc2c[nH]c3ccccc23)C(=O)N[C@@H](CC(C)C)C(=O)N[C@@H](CC(C)C)C(=O)N[C@@H](C)C(=O)N[C@@H](CCC(N)=O)C(=O)N[C@@H](CCCCN)C(=O)NCC(=O)N[C@@H](CCCCN)C(=O)N[C@@H](CCCCN)C(=O)N[C@@H](CC(N)=O)C(=O)N[C@@H](CC(=O)O)C(=O)N[C@@H](Cc2c[nH]c3ccccc23)C(=O)N[C@@H](CCCCN)C(=O)N[C@@H](Cc2c[nH]cn2)C(=O)N[C@@H](CC(N)=O)C(=O)N[C@H](C(=O)N[C@H](C(=O)N[C@@H](CCC(N)=O)C(=O)O)[C@@H](C)O)[C@@H](C)CC)C(C)C)[C@@H](C)CC)CCCCC1 [Example 51, (Aib^2, A6c^7, 14)hGIP(1-42)-OH] | 33.8 h | 12.7 h |
